Measured values published in article PMC8131106 (eLife, 2021).

Legend:
LeuT [1] = target: T1, LeuT (Aquifex aeolicus, UniProt O67854, H7C/R86C/A309C, form not given); test: DEER EPR distance distributions; assay type: binding; conditions: […] NaCl, fourfold molar excess of Leu; each spin-label pair in its own construct (pair also printed as […])
T1 construct: gene snf; pET16b, C-terminal 8xHis tag removed with thrombin, expressed in E. coli C41/C43(DE3), purified in DDM then OG; Cys pairs with spin labels for DEER

LeuT [2] = target: T2, LeuT (Aquifex aeolicus, UniProt O67854, R375D, form not given); test: DEER EPR distance distributions; assay type: binding; conditions: […] NaCl, fourfold molar excess of Leu; each spin-label pair in its own construct (pair also printed as […])
T2 construct: gene snf; pET16b, C-terminal 8xHis tag removed with thrombin, expressed in E. coli C41/C43(DE3), purified in DDM then OG; Cys pairs with spin labels for DEER

dDAT = target: T3, dDAT (Drosophila melanogaster, UniProt Q7K4Y6); conditions: […] min, room temperature, labelled compound
T3 construct: gene DAT

LeuT [3] = target: T4, LeuT (Aquifex aeolicus, UniProt O67854, R375A); test: X-ray crystal structure, […] A; assay type: binding; conditions: Na+ bound, outward-facing occluded
T4 construct: gene snf; pET16b, C-terminal 8xHis tag removed with thrombin, expressed in E. coli C41/C43(DE3), purified in DDM then OG; Cys pairs with spin labels for DEER

LeuT [4] = target: T5, LeuT (Aquifex aeolicus, UniProt O67854, R375D); test: X-ray crystal structure, […] A; assay type: binding; conditions: Na+ bound, outward-facing occluded
T5 construct: gene snf; pET16b, C-terminal 8xHis tag removed with thrombin, expressed in E. coli C41/C43(DE3), purified in DDM then OG; Cys pairs with spin labels for DEER

LeuT [5] = target: T6, LeuT (Aquifex aeolicus, UniProt O67854); test: X-ray crystal structure, […] A; assay type: binding; conditions: Na+ bound, outward-facing occluded
T6 construct: gene snf; pET16b, C-terminal 8xHis tag removed with thrombin, expressed in E. coli C41/C43(DE3), purified in DDM then OG; Cys pairs with spin labels for DEER

[6] = substrate: NCCc1ccc(O)c(O)c1; test: cells, lysate or membranes; conditions: pH […]-7.[…] min, […] DA, labelled compound

T3 sequence (Q7K4Y6 whole entry): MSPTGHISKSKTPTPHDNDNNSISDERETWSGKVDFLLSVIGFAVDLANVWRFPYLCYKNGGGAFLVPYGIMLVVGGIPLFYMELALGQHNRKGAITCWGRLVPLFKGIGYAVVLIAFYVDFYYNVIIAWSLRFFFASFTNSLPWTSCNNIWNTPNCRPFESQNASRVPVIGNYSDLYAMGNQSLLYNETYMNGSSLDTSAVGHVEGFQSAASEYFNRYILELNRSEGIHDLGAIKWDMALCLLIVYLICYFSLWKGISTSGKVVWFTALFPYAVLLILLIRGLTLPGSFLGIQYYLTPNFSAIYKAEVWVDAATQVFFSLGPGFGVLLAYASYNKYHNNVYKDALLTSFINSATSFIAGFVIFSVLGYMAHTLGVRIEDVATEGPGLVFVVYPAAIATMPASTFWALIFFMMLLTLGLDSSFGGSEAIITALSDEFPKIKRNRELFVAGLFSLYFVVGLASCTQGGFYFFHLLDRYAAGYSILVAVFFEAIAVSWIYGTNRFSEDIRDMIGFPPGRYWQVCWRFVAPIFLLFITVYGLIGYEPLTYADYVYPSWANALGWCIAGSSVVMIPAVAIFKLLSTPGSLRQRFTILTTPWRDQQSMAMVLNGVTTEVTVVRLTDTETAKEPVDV

CC(C)C[C@H](N)C(=O)O [Leu]
DEER EPR distance distributions (LeuT [1]): Leu binding to Na^+-bound LeuT restores the conformational preference to the OO form | DEER EPR distance distributions (LeuT [2]): Na^+/Leu resets the IC gate to the IO conformation

NCCc1ccc(O)c(O)c1 [dopamine]
[3H]DA uptake, intact fly brains (dDAT): uptake of [^3H]DA in hDAT WT Drosophila brains was not significantly different from that measured in dDAT

C[C@H](N)C(=O)O [L-Ala]
X-ray crystal structure, 2.1 A (LeuT [3]): LeuT WT, LeuT R375A, and LeuT R375D solved in the L-Ala and Na^+ bound OO conformation | X-ray crystal structure, 2.6 A (LeuT [4]): LeuT WT, LeuT R375A, and LeuT R375D solved in the L-Ala and Na^+ bound OO conformation | X-ray crystal structure, 2.1 A (LeuT [5]): L-Ala, Na1, and Na2 (purple spheres) could be modeled into their respective binding sites

B1: hDAT (Homo sapiens) (protein)
chain: MSKSKCSVGLMSSVVAPAKEPNAVGPKEVELILVKEQNGVQLTSSTLTNPRQSPVEAQDRETWGKKIDFLLSVIGFAVDLANVWRFPYLCYKNGGGAFLVPYLLFMVIAGMPLFYMELALGQFNREGAAGVWKICPILKGVGFTVILISLYVGFFYNVIIAWALHYLFSSFTTELPWIHCNNSWNSPNCSDAHPGDSSGDSSGLNDTFGTTPAAEYFERGVLHLHQSHGIDDLGPPRWQLTACLVLVIVLLYFSLWKGVKTSGKVVWITATMPYVVLTALLLRGVTLPGAIDGIRAYLSVDFYRLCEASVWIDAATQVCFSLGVGFGVLIAFSSYNKFTNNCYRDAIVTTSINSLTSFSSGFVVFSFLGYMAQKHSVPIGDVAKDGPGLIFIIYPEAIATLPLSSAWAVVFFIMLLTLGIDSAMGGMESVITGLIDEFQLLHRHRELFTLFIVLATFLLSLFCVTNGGIYVFTLLDHFAAGTSILFGVLIEAIGVAWFYGVGQFSDDIQQMTGQRPSLYWRLCWKLVSPCFLLFVVVVSIVTFRPPHYGAYIFPDWANALGWVIATSSMAMVPIYAAYKFCSLPGSFREKLAYAIAPEKDRELVDRGEVRQFTLRHWLKV
Km [6]: 5.7 ± 1.4 µM

B2: hDAT (Homo sapiens; R445C) (protein)
chain: MSKSKCSVGLMSSVVAPAKEPNAVGPKEVELILVKEQNGVQLTSSTLTNPRQSPVEAQDRETWGKKIDFLLSVIGFAVDLANVWRFPYLCYKNGGGAFLVPYLLFMVIAGMPLFYMELALGQFNREGAAGVWKICPILKGVGFTVILISLYVGFFYNVIIAWALHYLFSSFTTELPWIHCNNSWNSPNCSDAHPGDSSGDSSGLNDTFGTTPAAEYFERGVLHLHQSHGIDDLGPPRWQLTACLVLVIVLLYFSLWKGVKTSGKVVWITATMPYVVLTALLLRGVTLPGAIDGIRAYLSVDFYRLCEASVWIDAATQVCFSLGVGFGVLIAFSSYNKFTNNCYRDAIVTTSINSLTSFSSGFVVFSFLGYMAQKHSVPIGDVAKDGPGLIFIIYPEAIATLPLSSAWAVVFFIMLLTLGIDSAMGGMESVITGLIDEFQLLHRHCELFTLFIVLATFLLSLFCVTNGGIYVFTLLDHFAAGTSILFGVLIEAIGVAWFYGVGQFSDDIQQMTGQRPSLYWRLCWKLVSPCFLLFVVVVSIVTFRPPHYGAYIFPDWANALGWVIATSSMAMVPIYAAYKFCSLPGSFREKLAYAIAPEKDRELVDRGEVRQFTLRHWLKV
Km [6]: 0.10 ± 0.07 µM
